Tested on: vaccinia virus
Assay type: cell-based
Settings: not given
Wherever Blocking the replication of vaccinia virus in cells is given: test concentration or dose not given here.

| Structure (SMILES) | Blocking the replication of vaccinia virus in cells |
| --- | --- |
| CN(C)CC/N=c1\cc(-c2ccccc2)oc2ccc(Cl)cc12 [I, (E)-N-1-(6-chloro-2-phenyl-4H-chromen-4-ylidene)-N2,N2-dimethylethane-1,2-diamine] | effective in blocking the replication of vaccinia virus in cells |
| Cc1ccc2oc(-c3ccccc3)c/c(=N\CCO)c2c1 [II, (E)-2-(6-methyl-2-phenyl-4H-chromen-4-ylideneamino)ethanol] | effective in blocking the replication of vaccinia virus in cells |
| CCC/N=c1\cc(-c2ccccc2)oc2ccc(C)cc12 [III, (E)-N-(6-methyl-2-phenyl-4H-chromen-4-ylidene)propan-1-amine] | effective in blocking the replication of vaccinia virus in cells |
| O=C(O)c1ccccc1Nc1cccc(C(F)(F)F)c1 [IV, Flufenamic Acid] | effective in blocking the replication of vaccinia virus in cells |
| O=C(O)Cn1c2ccc(Cl)cc2c2nc3ccccc3nc21 [IX, 6H-Indolo[2,3-b]quinoxaline-6-acetic acid, 9-chloro-(9CI)] | effective in blocking the replication of vaccinia virus in cells |
| O=c1cc(-c2ccc(O)cc2)oc2cc(O)cc(O)c12 [V, Apigenin] | effective in blocking the replication of vaccinia virus in cells |
| Cn1cc(C2=C(c3cn(CCCSC(=N)N)c4ccccc34)C(=O)NC2=O)c2ccccc21 [VI, Carbamimidothioic acid, 3-[3-[2,5-dihydro-4-(1-methyl-1H-indol-3-yl)-2,5-dioxo-1H-pyrrol-3-yl]-1H-indol-1-yl]propyl ester (9CI)] | effective in blocking the replication of vaccinia virus in cells |
| COc1ccc(-c2cc3ccccn3c2C(=O)c2cccnc2)c(OC)c1 [VII, (2-(2,4-dimethoxyphenyl)indolizin-3-yl)(pyridin-3-yl)methanone] | effective in blocking the replication of vaccinia virus in cells |
| COC(=O)c1cccc2c1-c1ccccc1/C2=N\O [VIII, (E)-methyl 9-(hydroxyimino)-9H-fluorene-4-carboxylate] | effective in blocking the replication of vaccinia virus in cells |
| c1ccc2nc3c(nc2c1)c1ccccc1n3CCN1CCOCC1 [X, 6H-Indolo[2,3-b]quinoxaline-6-(2-morpholinoethy)] | effective in blocking the replication of vaccinia virus in cells |
| CCS(=O)(=O)N1CCN=C1SCc1ccc(Cl)cc1Cl [XI, 1H-Imidazole, 2-[[(2,4-dichlorophenyl)methyl]thio]-1-(ethylsulfonyl)-4,5-dihydro-(9CI)] | effective in blocking the replication of vaccinia virus in cells |
| Cc1cc(OC(=O)c2ccco2)nc(SCc2c(Cl)cccc2Cl)n1 [XII, 2-(2,6-dichlorobenzylthio)-6-methylpyrimidin-4-yl furan-2-carboxylate] | effective in blocking the replication of vaccinia virus in cells |
| N=C1/C(=C/c2coc3ccccc3c2=O)C(=O)N=C2SC=NN12 [XIII, (Z)-5-imino-6-((4-oxo-4H-chromen-3-yl)methylene)-5H-[1,3,4]thiadiazolo[3,2-a]pyrimidin-7(6H)-one] | effective in blocking the replication of vaccinia virus in cells |
| Cc1ccc2c(Sc3ccc(Cl)cc3)c(C(=O)O)[nH]c2c1 [XIV, 3-(4-chlorophenylthio)-6-methyl-1H-indole-2-carboxylic acid] | effective in blocking the replication of vaccinia virus in cells |
| Cc1csc2c(N3CCN(C(=O)NC(C)(C)C)CC3)ncnc12 [XIX, N-tert-butyl-4-(7-methylthieno[3,2-d]pyrimidin-4-yl)piperazine-1-carboxamide] | effective in blocking the replication of vaccinia virus in cells |
| Cc1cc(N)c2cc(OCCOc3ccc4nc(C)cc(N)c4c3)ccc2n1 [XL, 6,6′-(ethane-1,2-diylbis(oxy))bis(2-methylquinolin-4-amine)] | effective in blocking the replication of vaccinia virus in cells |

| Structure (SMILES) | Blocking the replication of vaccinia virus in cells |
| --- | --- |
| O=S(=O)(c1cc(Cl)ccc1O)c1cc(Cl)ccc1O [XLI, 2,2′-sulfonylbis(4-chlorophenol)] | effective in blocking the replication of vaccinia virus in cells |
| Oc1ccc([Te]CCNCC[Te]c2ccc(O)cc2)cc1 [XLII, 4,4′-(2,2′-azanediylbis(ethane-2,1-diyl)bis(tellanediyl))diphenol] | effective in blocking the replication of vaccinia virus in cells |
| Cc1c(N=Cc2cc(Br)cc(Br)c2O)cccc1C(=O)O [XV, Benzoic acid, 3-[[(3,5-dibromo-2-hydroxyphenyl)methylene]amino]-2-methyl-(9CI)] | effective in blocking the replication of vaccinia virus in cells |
| Cc1cc(/N=C/c2cc(Cl)cc(Cl)c2O)no1 [XVI, (E)-2,4-dichloro-6-((5-methylisoxazol-3-ylimino)methyl)phenol] | effective in blocking the replication of vaccinia virus in cells |
| CC(=O)n1c2ccccc2c2nc(C)sc21 [XVII, 4H-Thiazolo[5,4-b]indole, 4-acetyl-2-methyl-(9CI)] | effective in blocking the replication of vaccinia virus in cells |
| CCN1CCCC1CNC(=O)c1ccc2c(c1)sc1nc(-c3cccc(OC)c3)cn12 (stereo not shown) [XVIII, Imidazo[2,1-b]benzothiazole-7-carboxamide, N-(1-ethyl-2-pyrrolidyl)methyl-2-(3-methoxyphenyl)-(9CI)] | effective in blocking the replication of vaccinia virus in cells |
| O=C(Nc1ccccc1C(=O)O)OCC1c2ccccc2-c2ccccc21 [XXI, Benzoic acid, 2-[[(9H-fluoren-9-ylmethoxy)carbonyl]amino]-(9CI)] | effective in blocking the replication of vaccinia virus in cells |
| COc1ccc(Nc2nc(N3CCN(C)CC3)nc3ccccc23)c(OC)c1 [XXII, 4-Quinazolinamine, N-(2,4-dimethoxyphenyl)-2-(4-methyl-1-piperazinyl)-(9CI)] | effective in blocking the replication of vaccinia virus in cells |
| COc1ccc2c(C)nc(N=C(N)N=C(C)c3ccccc3C(=O)O)nc2c1 [XXIII, Benzoic acid, 2-[1-[[amino[(7-methoxy-4-methyl-2-quinazolinyl)imino]methyl]imino]ethyl]-(9CI)] | effective in blocking the replication of vaccinia virus in cells |
| CCn1c2ccccc2c2ccc(/C=N/n3cnnc3)cc21 [XXIV, (E)-N-((9-ethyl-9H-carbazol-2-yl)methylene)-4H-1,2,4-triazol-4-amine] | effective in blocking the replication of vaccinia virus in cells |
| CN(C)CCOC(=O)c1ccc2[nH]c3c(c2c1)CSCC3 [XXIX, Thiopyrano[4,3-b]indole-8-carboxylic acid, 1,3,4,5-tetrahydro-, 2-(dimethylamino)ethyl ester (7CI,8CI,9CI)] | effective in blocking the replication of vaccinia virus in cells |
| O=C(C=Cc1ccco1)C=Cc1ccco1 [XXVI, 1,4-Pentadien-3-one, 1,5-di-2-furanyl-(9CI)] | effective in blocking the replication of vaccinia virus in cells |
| COC(=O)c1c(NC(=O)c2ccc(OC)cc2)sc2c1CCN(C(C)C)C2.Cl [XXVII, Methyl 6-isopropyl-2-(4-methoxyphenylamido)-4,5,6,7-tetrahydrothieno[2,3-c]pyridine-3-carboxylate hydrochloride] | effective in blocking the replication of vaccinia virus in cells |
| CCOC(=O)c1c(NC(=O)/C=C/C(=O)O)sc(C)c1-c1ccccc1 [XXVIII, (E)-4-(3-(ethoxycarbonyl)-5-methyl-4-phenylthiophen-2-ylamino)-4-oxobut-2-enoic acid] | effective in blocking the replication of vaccinia virus in cells |
| CN(C)c1ccc(-c2cccc(-c3ccc(N(C)C)cc3)[o+]2)cc1 [XXX, 2,6-bis(4-(dimethylamino)phenyl)pyrylium] | effective in blocking the replication of vaccinia virus in cells |
| CCN1C(=O)/C(=C/C=C/c2ccco2)C(=O)NC1=S [XXXI, (E)-1-ethyl-5-((E)-3-(furan-2-yl)allylidene)-2-thioxodihydropyrimidine-4,6(1H,5H)-dione] | effective in blocking the replication of vaccinia virus in cells |

Target: vaccinia virus DNA synthesis (viral DNA polymerase and its associated factors) (Vaccinia virus, UniProt P06856)
Assay type: biochemical
Settings: read-out: DNA Synthesis IC50

| Structure (SMILES) | IC50 |
| --- | --- |
| CCN1CCN(c2ccc(Nc3ccnc4cc5ccccc5cc34)cc2)CC1 | 0.5 µM |
| BrCc1ccc(-c2noc(-c3ccncc3)n2)cc1 | 1.3 µM |
| CC[n+]1cc(/C=C2\SC=CN2C)c(C)c2cc(OC)c3ccccc3c21 | 3.5 µM |
| COc1ccc2c(c1)C=C/C(=C\c1sc3ccccc3[n+]1C)N2C | 4 µM |
| CC(C)Nc1ccc(Nc2ccnc3cc4ccccc4cc23)cc1 | 4.1 µM |
| CCOC(=O)c1cnc2c(C)c(C)ccc2c1NCCCN(C)C | 5 µM |
| CC1=CC(C)(C)N=C(Nc2nc(C)c3cc(C)cc(C)c3n2)N1 | 5.3 µM |
| CN(C)CCc1cc2c(c3c1ccc1ccccc13)OCO2 | 5.4 µM |
| CCN(CC)CCCNc1nc2cc(OC)c(OC)cc2c2nc(-c3ccccc3)nn12 | 5.9 µM |
| Cc1cc(NCCN2CCCCC2)c2ccc3ccccc3c2n1 | 6 µM |
| OC(CN1CCNCC1)Cn1c2ccc(Br)cc2c2cc(Br)ccc21 (stereo not shown) | 6.3 µM |
| CC1CCCC(C)N1CCNc1nc2ccccc2c2nc(-c3ccccc3)nn12 (stereo not shown) | 7.3 µM |
| O=C(O)c1ccc(CS(=O)(=O)c2ccccc2)o1 | 7.4 µM |
| COc1ccc2nc(NC(=N)N)nc(C)c2c1 | 7.4 µM |
| O=C(NCCCN1CCCC1)c1cc2c(Cl)nc3ccccc3c2s1 | 10 µM |
| Cc1ccc2nc(Cl)c3cc(C(=O)N(CCN(C)C)Cc4ccco4)sc3c2c1 | 10 µM |
| CN(C)CC/N=c1\cc(-c2ccccc2)oc2ccc(Cl)cc12 [drawing 93] | 6.7 µM |

Reference: patent US9211296B2, “Therapeutic compounds for blocking DNA synthesis of POX viruses” (priority 2007, dated 2015)
